Our source for the IC50 values is patent publication US9085606B2, “Beta amino acid derivatives as integrin antagonists” (Saint Louis University, priority 2012, dated 2015).

The target of experiment [1] is T1, Recombinant human integrin α5β1 (Homo sapiens, UniProt P05556+P08648).
T1 construct: purchased R&D Systems 3230-A5
Nature of the experiment: Solid Phase Receptor Assay for α5β1 Function. Conditions: binding to fibronectin-coated plate; read-out: α5β1 SPRA IC50. As to the method:
Solid Phase Receptor Assay for α5β1 Function.
Wells were washed 3 times with 150 μL TBS+ and 150 μl of blocking buffer (TBS+ with 1% bovine serum albumin, Sigma A7906) were added. The plate was incubated for 1 hr at 37° C. and then washed 3× with TBS+ buffer. […] Compounds were diluted 1:100 into the integrin solution and then 50 μL added to empty wells of the washed fibronectin-coated plate according to a standard template with each sample repeated in triplicate. After incubation for two hours at room temperature, the plate was washed 3× with 150 μL of TBS+ buffer. To each well, 50 μL of biotinylated anti-α5 antibody (R&D Systems, BAF1864) at 0.5 ug/mL in TBS+/0.1% BSA were added and the plate covered and incubated for 1 hr at room temperature. After washing the plate 3× with 150 μL of TBS+ buffer, 50 μL of streptavidin-conjugated horseradish peroxidase (R&D Systems, DY998) diluted in TBS+ blocking buffer were added to the wells and the plate incubated for 20 min at room temperature. The plate was washed 3× with TBS+ buffer followed by 50 μL of room temperature TMB substrate (Sigma, T444) added to each well and the plate incubated for 20 min at room temperature. The reaction was optionally stopped with 25 μL of Stop Solution (Sigma S5689). Plates were read by colorimetric detection at 650 nm wavelength using a Tecan Safire II plate reader.

Experiment [2] concerns the target T2, Recombinant human integrin αvβ5 (Homo sapiens, UniProt P06756+P18084).
T2 construct: purchased R&D Systems 2528-AV
Kind of experiment: Solid Phase Receptor Assay for αvβ5 Function. Conditions: binding to vitronectin-coated plate; read-out: αvβ5 SPRA IC50. As to the method:
Solid Phase Receptor Assay for αvβ5 Function.
(§1) Wells were washed 3 times with 150 μL TBS+ and 150 μL of blocking buffer (TBS+ with 1% bovine serum albumin, Sigma A7906) were added. The plate was incubated for 1 hr at 37° C. and then washed 3× with TBS+ buffer. […] Compounds were diluted 1:100 into the integrin solution and then 50 μL added to empty wells of the washed vitronectin-coated plate according to a standard template with each sample repeated in triplicate. After incubation for two hours at room temperature, the plate was washed 3× with 150 μL of TBS+ buffer. To each well, 50 μL of biotinylated anti-αv antibody (R&D Systems, BAF1219) at 0.5 μg/mL in TBS+/0.1% BSA at 0.5 μg/mL were added and the plate covered and incubated for 1 hr at room temperature. After washing the plate 3× with 150 μL of TBS+ buffer, 50 μL of streptavidin-conjugated horseradish peroxidase (R&D Systems DY998) diluted in TBS+ blocking buffer were added to the wells and the plate incubated for 20 min at room temperature. The plate was washed 3× with TBS+ buffer followed by 50 μL of TMB substrate (Sigma T4444) added to each well and the plate incubated for 20 min at room temperature. The reaction was optionally stopped with 25 μL of Stop Solution (Sigma S5689). Plates were read by colorimetric detection at 650 nm wavelength using a Tecan Safire II plate reader.

Experiment [3] has as its target T3, Recombinant human integrin αvβ6 (Homo sapiens, UniProt P06756+P18564).
T3 construct: purchased R&D Systems 3817-AV
Kind of experiment: Solid Phase Receptor Assay for αvβ6 Function. Conditions: binding to LAP-coated plate; read-out: αvβ6 SPRA IC50. As to the method:
Solid Phase Receptor Assay for αvβ6 Function.
as §1, with “150 μL TBS+, and 150” for “150 μL TBS+ and 150”, “at 37° C., and then” for “at 37° C. and then”, “the washed LAP-coated plate according” for “the washed vitronectin-coated plate according”, “TBS+/0.1% BSA were added” for “TBS+/0.1% BSA at 0.5 μg/mL were added”, “the plate was covered and” for “the plate covered and”, “peroxidase (R&D Systems, DY998) diluted” for “peroxidase (R&D Systems DY998) diluted”

T3 sequence (P06756 31-992 limits assumed): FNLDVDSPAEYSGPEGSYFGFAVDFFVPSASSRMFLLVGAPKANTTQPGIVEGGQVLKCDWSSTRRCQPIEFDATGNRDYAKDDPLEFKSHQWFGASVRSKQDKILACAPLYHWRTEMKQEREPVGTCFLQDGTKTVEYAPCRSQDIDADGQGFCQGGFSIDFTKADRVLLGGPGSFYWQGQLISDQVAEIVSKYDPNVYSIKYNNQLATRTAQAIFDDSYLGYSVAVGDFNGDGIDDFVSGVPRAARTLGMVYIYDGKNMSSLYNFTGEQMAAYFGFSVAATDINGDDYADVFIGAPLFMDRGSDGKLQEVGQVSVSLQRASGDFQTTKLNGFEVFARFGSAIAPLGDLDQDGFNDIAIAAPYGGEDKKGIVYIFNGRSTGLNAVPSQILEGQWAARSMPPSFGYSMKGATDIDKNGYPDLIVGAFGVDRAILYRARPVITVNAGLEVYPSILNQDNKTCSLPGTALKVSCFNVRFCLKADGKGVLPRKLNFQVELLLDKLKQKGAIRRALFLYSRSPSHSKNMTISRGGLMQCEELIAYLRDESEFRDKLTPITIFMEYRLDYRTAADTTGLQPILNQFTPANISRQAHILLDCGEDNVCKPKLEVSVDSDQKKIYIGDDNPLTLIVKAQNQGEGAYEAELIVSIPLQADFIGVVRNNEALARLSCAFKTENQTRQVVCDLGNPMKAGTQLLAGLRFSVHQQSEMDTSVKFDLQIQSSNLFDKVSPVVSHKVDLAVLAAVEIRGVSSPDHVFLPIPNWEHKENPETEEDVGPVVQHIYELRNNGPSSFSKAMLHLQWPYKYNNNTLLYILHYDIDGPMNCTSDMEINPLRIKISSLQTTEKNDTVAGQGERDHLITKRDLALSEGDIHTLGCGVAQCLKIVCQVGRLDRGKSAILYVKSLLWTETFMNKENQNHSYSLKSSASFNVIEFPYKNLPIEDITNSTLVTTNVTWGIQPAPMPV
T3 sequence (P18564 22-707 limits assumed): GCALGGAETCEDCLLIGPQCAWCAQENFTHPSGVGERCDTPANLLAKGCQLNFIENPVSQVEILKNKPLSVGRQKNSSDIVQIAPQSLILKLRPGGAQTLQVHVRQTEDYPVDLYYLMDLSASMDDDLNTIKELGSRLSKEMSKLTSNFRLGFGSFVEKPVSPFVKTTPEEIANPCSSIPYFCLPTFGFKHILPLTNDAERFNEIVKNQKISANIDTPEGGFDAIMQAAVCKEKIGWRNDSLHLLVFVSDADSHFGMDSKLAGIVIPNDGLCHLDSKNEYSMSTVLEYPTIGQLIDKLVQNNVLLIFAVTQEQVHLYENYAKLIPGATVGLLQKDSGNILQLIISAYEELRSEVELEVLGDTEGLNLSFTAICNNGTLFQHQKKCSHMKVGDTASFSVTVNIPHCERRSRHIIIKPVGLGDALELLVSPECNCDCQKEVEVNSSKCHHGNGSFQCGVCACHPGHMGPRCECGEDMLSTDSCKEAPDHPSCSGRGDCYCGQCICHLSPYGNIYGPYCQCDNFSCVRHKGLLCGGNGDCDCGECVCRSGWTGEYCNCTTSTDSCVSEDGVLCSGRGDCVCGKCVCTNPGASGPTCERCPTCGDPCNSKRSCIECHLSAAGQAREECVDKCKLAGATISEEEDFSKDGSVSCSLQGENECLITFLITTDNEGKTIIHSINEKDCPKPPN
T2 sequence (P06756 31-992 limits assumed): as the sequence (P06756 31-992 limits assumed) above
T2 sequence (P18084 24-719 limits assumed): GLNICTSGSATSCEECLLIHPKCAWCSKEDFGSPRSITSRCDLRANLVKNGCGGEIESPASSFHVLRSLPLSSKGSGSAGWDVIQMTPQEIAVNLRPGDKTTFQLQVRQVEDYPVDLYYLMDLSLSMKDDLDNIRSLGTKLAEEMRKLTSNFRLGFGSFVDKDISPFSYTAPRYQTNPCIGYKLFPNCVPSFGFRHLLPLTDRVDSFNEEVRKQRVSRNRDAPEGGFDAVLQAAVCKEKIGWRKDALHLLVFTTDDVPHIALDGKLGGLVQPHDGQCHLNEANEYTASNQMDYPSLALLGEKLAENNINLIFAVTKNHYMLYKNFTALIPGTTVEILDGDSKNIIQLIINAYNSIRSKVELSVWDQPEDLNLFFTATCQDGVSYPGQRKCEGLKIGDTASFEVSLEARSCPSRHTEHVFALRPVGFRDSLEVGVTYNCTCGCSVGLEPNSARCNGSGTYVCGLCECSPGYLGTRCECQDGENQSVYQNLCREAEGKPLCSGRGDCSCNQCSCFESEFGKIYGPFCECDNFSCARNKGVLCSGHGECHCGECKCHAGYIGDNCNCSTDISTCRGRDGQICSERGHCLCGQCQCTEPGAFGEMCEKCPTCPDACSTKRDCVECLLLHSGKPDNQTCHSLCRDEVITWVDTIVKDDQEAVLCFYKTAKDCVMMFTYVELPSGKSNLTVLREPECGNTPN
T1 sequence (P08648 42-995 limits assumed): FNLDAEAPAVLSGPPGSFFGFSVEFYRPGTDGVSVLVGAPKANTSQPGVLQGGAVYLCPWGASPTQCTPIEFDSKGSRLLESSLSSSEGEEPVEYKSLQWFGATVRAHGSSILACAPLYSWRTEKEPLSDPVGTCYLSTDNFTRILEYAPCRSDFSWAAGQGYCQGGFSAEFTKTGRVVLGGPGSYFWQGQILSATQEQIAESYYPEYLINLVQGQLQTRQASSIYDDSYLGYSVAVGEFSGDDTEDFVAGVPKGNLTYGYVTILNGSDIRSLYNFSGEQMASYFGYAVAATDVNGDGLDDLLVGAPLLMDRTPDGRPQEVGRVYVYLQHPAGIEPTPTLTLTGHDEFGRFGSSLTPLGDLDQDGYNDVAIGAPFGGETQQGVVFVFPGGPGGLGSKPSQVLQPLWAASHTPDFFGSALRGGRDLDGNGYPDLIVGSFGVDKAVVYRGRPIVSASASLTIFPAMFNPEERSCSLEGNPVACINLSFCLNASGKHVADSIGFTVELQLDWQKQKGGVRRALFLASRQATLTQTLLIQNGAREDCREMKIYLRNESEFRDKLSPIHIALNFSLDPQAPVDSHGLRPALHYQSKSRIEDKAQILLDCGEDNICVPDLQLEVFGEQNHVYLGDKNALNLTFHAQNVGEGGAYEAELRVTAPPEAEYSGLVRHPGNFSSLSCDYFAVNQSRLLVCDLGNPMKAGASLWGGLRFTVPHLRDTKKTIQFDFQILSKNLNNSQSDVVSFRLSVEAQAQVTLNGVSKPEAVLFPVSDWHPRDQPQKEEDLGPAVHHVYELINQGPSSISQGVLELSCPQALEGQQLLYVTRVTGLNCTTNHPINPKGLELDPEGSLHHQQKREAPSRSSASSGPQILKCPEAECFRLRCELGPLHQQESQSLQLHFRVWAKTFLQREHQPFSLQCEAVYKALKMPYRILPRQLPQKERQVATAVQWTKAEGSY
T1 sequence (P05556 21-728 limits assumed): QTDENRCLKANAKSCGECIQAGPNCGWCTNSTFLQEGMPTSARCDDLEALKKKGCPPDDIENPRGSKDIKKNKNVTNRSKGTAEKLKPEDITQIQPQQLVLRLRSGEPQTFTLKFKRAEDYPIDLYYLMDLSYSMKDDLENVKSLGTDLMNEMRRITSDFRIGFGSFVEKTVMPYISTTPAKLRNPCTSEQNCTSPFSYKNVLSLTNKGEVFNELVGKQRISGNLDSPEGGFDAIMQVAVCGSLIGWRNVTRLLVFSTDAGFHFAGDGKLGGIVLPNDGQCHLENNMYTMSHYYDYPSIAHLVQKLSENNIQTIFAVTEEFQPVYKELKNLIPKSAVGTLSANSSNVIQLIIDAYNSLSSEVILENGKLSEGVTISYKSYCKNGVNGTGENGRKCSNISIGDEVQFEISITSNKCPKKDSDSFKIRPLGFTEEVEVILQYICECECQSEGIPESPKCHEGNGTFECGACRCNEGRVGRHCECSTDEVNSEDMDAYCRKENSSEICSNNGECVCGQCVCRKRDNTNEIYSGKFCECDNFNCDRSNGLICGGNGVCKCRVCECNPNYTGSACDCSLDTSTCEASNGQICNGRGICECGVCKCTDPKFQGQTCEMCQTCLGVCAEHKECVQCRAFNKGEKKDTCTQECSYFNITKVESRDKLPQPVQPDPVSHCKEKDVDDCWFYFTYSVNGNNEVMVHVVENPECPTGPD

One may read the IC50 as the midpoint of a concentration-inhibition curve. As for `N#CC1(c2cc(Cl)cc([C@H](CC(=O)O)NC(=O)CNC(=O)c3cc(O)cc(NC4=NCC(O)CN4)c3)c2)CCC1` (stereo partly drawn) [Example 21, (3S)-3-(3-chloro-5-(1-cyanocyclobutyl)phenyl)-3-(2-(3-hydroxy-5-((5-hydroxy-1,4,5,6-tetrahydropyrimidin-2-yl)amino)benzamido)acetamido)propanoic acid], the figures for the 50% inhibitory concentration (IC50) in experiment [1], in experiment [2] and in experiment [3] were 0.3 nM, 0.4 nM and 0.3 nM, respectively.

For the compound `N#CC1(c2cc(Cl)cc([C@H](CC(=O)O)NC(=O)CNC(=O)c3cc(O)cc(NC4=NCC(O)CN4)c3)c2)CCOCC1` (stereo partly drawn) [Example 22, (3S)-3-(3-chloro-5-(4-cyanotetrahydro-2H-pyran-4-yl)phenyl)-3-(2-(3-hydroxy-5-((5-hydroxy-1,4,5,6-tetrahydropyrimidin-2-yl)amino)benzamido)acetamido)propanoic acid], the results for the IC50 in experiment [1], in experiment [2] and in experiment [3] were 0.3 nM, 0.4 nM and 0.3 nM, respectively.

For the compound `CC(O)(c1cc(Cl)cc([C@H](CC(=O)O)NC(=O)CNC(=O)c2cc(O)cc(NC3=NCC(O)CN3)c2)c1)C(F)(F)F` (stereo partly drawn) [Example 23, (3S)-3-(3-chloro-5-(1,1,1-trifluoro-2-hydroxypropan-2-yl)phenyl)-3-(2-(3-hydroxy-5-((5-hydroxy-1,4,5,6-tetrahydropyrimidin-2-yl)amino)benzamido)acetamido)propanoic acid], the IC50 in experiment [1] turned out to be 0.3 nM; in experiment [2] it was 0.5 nM; in experiment [3], 0.4 nM.

For the compound `CC(C)(c1cc(Cl)cc([C@H](CC(=O)O)NC(=O)CNC(=O)c2cc(O)cc(NC3=NCC(O)CN3)c2)c1)C(F)(F)F` (stereo partly drawn) [Example 24, (3S)-3-(3-chloro-5-(1,1,1-trifluoro-2-methylpropan-2-yl)phenyl)-3-(2-(3-hydroxy-5-((5-hydroxy-1,4,5,6-tetrahydropyrimidin-2-yl)amino)benzamido)acetamido)propanoic acid], the IC50 in experiment [1] came out at 0.3 nM; in experiment [2], 0.3 nM; in experiment [3] it was 0.4 nM.

In the case of `CC(O)(c1cc([C@H](CC(=O)O)NC(=O)CNC(=O)c2cc(O)cc(NC3=NCC(O)CN3)c2)cc(C(F)(F)F)c1)C(F)(F)F` (stereo partly drawn) [Example 25, (3S)-3-(2-(3-hydroxy-5-((5-hydroxy-1,4,5,6-tetrahydropyrimidin-2-yl)amino)benzamido)acetamido)-3-(3-(1,1,1-trifluoro-2-hydroxypropan-2-yl)-5-(trifluoromethyl)phenyl)propanoic acid], the IC50 in experiment [1] came out at 0.4 nM; in experiment [2], 1.3 nM; in experiment [3] it was 0.4 nM.

Turning to `O=C(O)C[C@H](NC(=O)CNC(=O)c1cc(O)cc(NC2=NCC(O)CN2)c1)c1cc(Br)cc(C2(C(F)F)CC2)c1` (stereo partly drawn) [Example 26, (3S)-3-(3-bromo-5-(1-(difluoromethyl)cyclopropyl)phenyl)-3-(2-(3-hydroxy-5-((5-hydroxy-1,4,5,6-tetrahydropyrimidin-2-yl)amino)benzamido)acetamido)propanoic acid], the IC50 in experiment [1] was 0.1 nM; in experiment [2], 0.5 nM; in experiment [3], 0.1 nM.
